In US7846905B2, “Agent for inhibiting visceral fat accumulation” (Morinaga Milk Industry Co., Ltd., priority 2005, dated 2010):

What was measured:
[1] = rat, in vivo
Experimental: This example was performed in order to investigate an effect of 3-O-β-D-glucopyranosyl-4-methylergost-7-en-3-ol and a squeezed liquid of Aloe vera on an amount of food ingestion (amount of food consumption) and increase in body weight (amount of increased body weight) of rats.
The sample was dissolved in DMSO, and the concentration of the sample was adjusted with distilled water to 10 μg/ml, to thereby prepare Test Sample C. Meanwhile, a crude solution was obtained by crushing Aloe vera gel with a juicer, and then was subjected to filtration with a No. 200 mesh (manufactured by NBC), to thereby obtain a squeezed liquid of the Aloe vera gel as Test Sample D. It was confirmed that the crush extract of Aloe vera gel contained 0.1% of 3-O-β-D-glucopyranosyl-4-methylergost-7-en-3-ol by mass. In addition, final concentration of DMSO was adjusted to 0.2%. […]
42 days after initiation of the administration, the body weights of the rats were measured, and differences between the body weights on the 42nd day and those measured before the initiation of the administration were regarded as amounts of increased body weights. In addition, weights of food consumed per day were measured once a week from the day of the initiation of the administration, and an average of the weights was regarded as an amount of food consumption per day.

[2] = test system: hemoglobin A1c level; settings: WO 2005/095436; cited from earlier work
[3] = test system: ZDF (Zucker Diabetic Fatty) rats; test: Inhibitory effect on visceral fat accumulation: mesenteric fat weight in ZDF rats (Example 1); type: in vivo; settings: for Mesenteric fat weight: ZDF rats on high-fat diet, oral once a day for 44 days, measured on 45th day, A-1 25 μg/kg, A-2 2.5 μg/kg compound, B-1 2.5 g/kg, B-2 0.125 g/kg Aloe vera solid content; for Mesenteric fat weight as compared with the group administered with the negative sample (decrease to) / Effect of inhibiting visceral fat accumulation (statistical significance, Tukey-Kramer's test): ZDF rats, 45th day; for Mesenteric fat weight as compared with the group administered with the negative sample (decrease to): negative sample 6.83±1.10 g; for Effect of inhibiting visceral fat accumulation (statistical significance, Tukey-Kramer's test): versus negative sample
Experimental: The squeezed liquid of Aloe vera gel was diluted 20 folds to prepare Test Sample B-2.
On 45th day from the initiation of the administration, mesenteric fat weights were measured as the visceral fat.

Row | Structure (SMILES) | Amount of food consumption as compared with the negative sample group [1] | Effect on hemoglobin A1c level and hyperglycemia [2] | Mesenteric fat weight [3] [g] | Mesenteric fat weight as compared with the group administered with the negative sample (decrease to) [3] [%] | Effect of inhibiting visceral fat accumulation (statistical significance, Tukey-Kramer's test) [3]
1 | CC(C)C(C)CCC(C)C1CCC2C3=CCC4C(C)C(OC5OC(CO)C(O)C(O)C5O)CCC4(C)C3CCC21C [Compound 1, 3-O-β-D-glucopyranosyl-4-methylergost-7-en-3-ol] | does not affect the amount of food ingestion | effect of decreasing hemoglobin A1c level and improving hyperglycemia |  |  | 
2 | CC(C)C(C)CCC(C)C1CCC2C3=CCC4C(C)C(OC5OC(CO)C(O)C(O)C5O)CCC4(C)C3CCC21C [Test Sample A-1, 3-O-β-D-glucopyranosyl-4-methylergost-7-en-3-ol] |  |  | 3.15 ± 0.28 | 46.2 | statistically significant effects of inhibiting visceral fat accumulation
3 | CC(C)C(C)CCC(C)C1CCC2C3=CCC4C(C)C(OC5OC(CO)C(O)C(O)C5O)CCC4(C)C3CCC21C [Test Sample A-2, 3-O-β-D-glucopyranosyl-4-methylergost-7-en-3-ol] |  |  | 4.99 ± 0.53 | 73.1 | statistically significant effects of inhibiting visceral fat accumulation
4 | CC(C)C(C)CCC(C)C1CCC2C3=CCC4C(C)C(OC5OC(CO)C(O)C(O)C5O)CCC4(C)C3CCC21C [Test Sample C, 3-O-β-D-glucopyranosyl-4-methylergost-7-en-3-ol] | did not show significant increase or decrease in amount of food consumption |  |  |  | 
